Data published in patent EP0878194A1, “REMEDIES OR PREVENTIVES FOR AIDS” (SANKYO COMPANY LIMITED, priority 1996, dated 1997).
Where two headings read alike, the source gives them in different places.

How the values were obtained:
[1] = system: HIV-1IIIB strain; assay: In vitro combined test: survival of HIV-1IIIB-infected MT4 cells (MTT), isobologram and combination index; assay type: cell-based
[2] = system: HIV-1IIIB strain; assay: as above; assay type: cell-based; details: read-out: IC50 of Preparation example 117
Procedure: Human T cell transformed cell line MT4 cells were cultured in RPMI 1640 medium containing 10% fetal bovine serum. HIV-1IIIB strain was obtained from HIV-1IIIB chronically infected Molt-4 cells as a supernatant fluid and used as the source of infectious viruses. The 50% tissue culture infectious dose (TCID50) of this fluid was determined by the endpoint titration methods.
The compound of Preparation example 117 was added in a serial dilution in the vertical direction to six 96-well microtiter plates. As a result of adding ZDV (Sigma) in a serial dilution in the horizontal direction, diluted solutions containing mixtures of various concentrations were prepared in 96-well microtiter plates (n=4).
MT4 cells were exposed to HIV-1IIIB fluid at a multiplicity of infection (m.o.i) 0.001 TCID50/ml at 37°C for 1 hour, then the cells were washed twice with PBS, and aliquots (5 x 10^4 cells/well) were placed in the plates containing various concentration of agent prepared as described above. After incubation for 6 days, the survival rate of infected MT4 cells was determined by the cell survival test using MTT (Sigma). Incidentally, in this test, the absorbance at O.D. 540 nm was measured by a plate reader, and the survival rate was determined by drawing a cell survival curve.
Analysis was performed according to the method of Barenbaum using an isobologram and combination index (CI) (Barenbaum, M.C., Pharmacol. Rev., 41, 93-141, 1989). In this case, the CI value was calculated by the general isobole equation. Determination of synergy, addition and […] was performed by isobologram curve patterns and/or statistical comparison of experimental CI values with CI values in typical additive effects (CI values when identical compounds are used in combination (0.85±0.11, Taylor, D.L. et al., Antiviral Chem. Chemother., 6, 143-152, 1995)).

`Nc1ccn([C@@H]2CS[C@H](CO)O2)c(=O)n1` [3TC, 4-amino-1-(2-hydroxymethyl-1,3-oxathioran-5-yl)-(1H)-pyrimidin-2-one, reference compound] showed an IC50 ([1]; Human immunodeficiency virus 1, MT4, alone (Preparation example 117 0), Table 33 experiment, read-out: IC50 of 3TC) of 0.6 µg/mL, an IC50 ([1]; Human immunodeficiency virus 1, MT4, with Preparation example 117 0.38 ng/ml, read-out: IC50 of 3TC) of 0.5 µg/mL and an IC50 ([1]; Human immunodeficiency virus 1, MT4, with Preparation example 117 0.78 ng/ml, read-out: IC50 of 3TC) of 0.52 µg/mL. The IC50 ([1]; Human immunodeficiency virus 1, MT4, with Preparation example 117 0.96 ng/ml, read-out: IC50 of 3TC) was 0.5 µg/mL, the IC50 ([1]; Human immunodeficiency virus 1, MT4, with Preparation example 117 1.56 ng/ml, read-out: IC50 of 3TC) was 0.43 µg/mL and the IC50 ([1]; Human immunodeficiency virus 1, MT4, with Preparation example 117 3.13 ng/ml, read-out: IC50 of 3TC) was 0.34 µg/mL. The IC50 ([1]; Human immunodeficiency virus 1, MT4, with Preparation example 117 4.57 ng/ml, read-out: IC50 of 3TC) was 0.25 µg/mL, the IC50 ([1]; Human immunodeficiency virus 1, MT4, with Preparation example 117 6.25 ng/ml, read-out: IC50 of 3TC) was 0.19 µg/mL and the IC50 ([1]; Human immunodeficiency virus 1, MT4, with Preparation example 117 8.0 ng/ml, read-out: IC50 of 3TC) was 0.125 µg/mL. The IC50 ([1]; Human immunodeficiency virus 1, MT4, with Preparation example 117 12.4 ng/ml, read-out: IC50 of 3TC) was 0.063 µg/mL, the IC50 ([1]; Human immunodeficiency virus 1, MT4, with Preparation example 117 12.7 ng/ml, read-out: IC50 of 3TC) was 0.0313 µg/mL and the IC50 ([1]; Human immunodeficiency virus 1, MT4, with Preparation example 117 13.0 ng/ml, read-out: IC50 of 3TC) was 0.0156 µg/mL.
`OC[C@@H]1CC[C@H](n2cnc3c(O)ncnc32)O1` [DDI, 2',3'-dideoxyinosine, reference compound] gave an IC50 ([1]; Human immunodeficiency virus 1, MT4, alone (Preparation example 117 0), Table 34 experiment, read-out: IC50 of DDI) of 5400 nM, an IC50 ([1]; Human immunodeficiency virus 1, MT4, with Preparation example 117 0.39 ng/ml, read-out: IC50 of DDI) of 4270 nM and an IC50 ([1]; Human immunodeficiency virus 1, MT4, with Preparation example 117 0.78 ng/ml, read-out: IC50 of DDI) of 4380 nM. For the same molecule, the IC50 ([1]; Human immunodeficiency virus 1, MT4, with Preparation example 117 1.56 ng/ml, read-out: IC50 of DDI) was 3650 nM, the IC50 ([1]; Human immunodeficiency virus 1, MT4, with Preparation example 117 3.13 ng/ml, read-out: IC50 of DDI) was 2800 nM and the IC50 ([1]; Human immunodeficiency virus 1, MT4, with Preparation example 117 3.85 ng/ml, read-out: IC50 of DDI) was 2500 nM. For the same molecule, the IC50 ([1]; Human immunodeficiency virus 1, MT4, with Preparation example 117 6.25 ng/ml, read-out: IC50 of DDI) was 1670 nM, the IC50 ([1]; Human immunodeficiency virus 1, MT4, with Preparation example 117 7.70 ng/ml, read-out: IC50 of DDI) was 1250 nM and the IC50 ([1]; Human immunodeficiency virus 1, MT4, with Preparation example 117 10.0 ng/ml, read-out: IC50 of DDI) was 630 nM. For the same molecule, the IC50 ([1]; Human immunodeficiency virus 1, MT4, with Preparation example 117 10.5 ng/ml, read-out: IC50 of DDI) was 313 nM and the IC50 ([1]; Human immunodeficiency virus 1, MT4, with Preparation example 117 11.0 ng/ml, read-out: IC50 of DDI) was 156 nM.
In the case of `Cn1cc(C(=O)O)c(=O)c2cc(F)c(N3CCN(c4ncccn4)CC3)c(C(F)(F)F)c21` [Preparation example 117, 6-fluoro-8-trifluoromethyl-1,4-dihydro-4-oxo-1-methyl-7-[4-(2-pyrimidinyl)piperazin-1-yl]quinoline-3-carboxylic acid], the IC50 ([2]; Human immunodeficiency virus 1, MT4, with ZDV 1.56 ng/ml) is reported as 0.0241 µg/mL, the IC50 ([2]; Human immunodeficiency virus 1, MT4, with ZDV 6.25 ng/ml) is reported as 0.0111 µg/mL and the IC50 ([2]; Human immunodeficiency virus 1, MT4, with ZDV 11.6 ng/ml) is reported as 0.00625 µg/mL. The IC50 ([2]; Human immunodeficiency virus 1, MT4, with ZDV 13.9 ng/ml) was 0.00313 µg/mL, the IC50 ([1]; Human immunodeficiency virus 1, MT4, alone (3TC 0), Table 33 experiment, read-out: IC50 of Preparation example 117) was 0.016 µg/mL and the IC50 ([1]; Human immunodeficiency virus 1, MT4, alone (DDI 0), Table 34 experiment, read-out: IC50 of Preparation example 117) was 0.014 µg/mL. The IC50 ([1]; Human immunodeficiency virus 1, MT4, alone (ZDV 0), Table 32 experiment, read-out: IC50 of Preparation example 117) was 0.039 µg/mL, the IC50 ([1]; Human immunodeficiency virus 1, MT4, with 3TC 0.0156 µg/ml, read-out: IC50 of Preparation example 117) was 0.013 µg/mL and the IC50 ([1]; Human immunodeficiency virus 1, MT4, with 3TC 0.0313 µg/ml, read-out: IC50 of Preparation example 117) was 0.0127 µg/mL. It also gave an IC50 ([1]; Human immunodeficiency virus 1, MT4, with 3TC 0.063 µg/ml, read-out: IC50 of Preparation example 117) of 0.0124 µg/mL, an IC50 ([1]; Human immunodeficiency virus 1, MT4, with 3TC 0.125 µg/ml, read-out: IC50 of Preparation example 117) of 0.008 µg/mL and an IC50 ([1]; Human immunodeficiency virus 1, MT4, with 3TC 0.19 µg/ml, read-out: IC50 of Preparation example 117) of 0.00625 µg/mL. For the same molecule, the IC50 ([1]; Human immunodeficiency virus 1, MT4, with 3TC 0.25 µg/ml, read-out: IC50 of Preparation example 117) was 0.00457 µg/mL, the IC50 ([1]; Human immunodeficiency virus 1, MT4, with 3TC 0.34 µg/ml, read-out: IC50 of Preparation example 117) was 0.00313 µg/mL and the IC50 ([1]; Human immunodeficiency virus 1, MT4, with 3TC 0.43 µg/ml, read-out: IC50 of Preparation example 117) was 0.00156 µg/mL. It also gave an IC50 ([1]; Human immunodeficiency virus 1, MT4, with 3TC 0.50 µg/ml (Table 33, first line with 0.50), read-out: IC50 of Preparation example 117) of 0.00096 µg/mL, an IC50 ([1]; Human immunodeficiency virus 1, MT4, with 3TC 0.50 µg/ml (Table 33, second line with 0.50), read-out: IC50 of Preparation example 117) of 0.00038 µg/mL and an IC50 ([1]; Human immunodeficiency virus 1, MT4, with 3TC 0.52 µg/ml, read-out: IC50 of Preparation example 117) of 0.00078 µg/mL. It also gave an IC50 ([1]; Human immunodeficiency virus 1, MT4, with DDI 0.156 µM, read-out: IC50 of Preparation example 117) of 0.011 µg/mL, an IC50 ([1]; Human immunodeficiency virus 1, MT4, with DDI 0.313 µM, read-out: IC50 of Preparation example 117) of 0.0105 µg/mL and an IC50 ([1]; Human immunodeficiency virus 1, MT4, with DDI 0.63 µM, read-out: IC50 of Preparation example 117) of 0.01 µg/mL. For the same molecule, the IC50 ([1]; Human immunodeficiency virus 1, MT4, with DDI 1.25 µM, read-out: IC50 of Preparation example 117) was 0.0077 µg/mL, the IC50 ([1]; Human immunodeficiency virus 1, MT4, with DDI 1.67 µM, read-out: IC50 of Preparation example 117) was 0.00625 µg/mL and the IC50 ([1]; Human immunodeficiency virus 1, MT4, with DDI 2.50 µM, read-out: IC50 of Preparation example 117) was 0.00385 µg/mL. The IC50 ([1]; Human immunodeficiency virus 1, MT4, with DDI 2.80 µM, read-out: IC50 of Preparation example 117) was 0.00313 µg/mL, the IC50 ([1]; Human immunodeficiency virus 1, MT4, with DDI 3.65 µM, read-out: IC50 of Preparation example 117) was 0.00156 µg/mL and the IC50 ([1]; Human immunodeficiency virus 1, MT4, with DDI 4.27 µM, read-out: IC50 of Preparation example 117) was 0.00039 µg/mL. It also gave an IC50 ([1]; Human immunodeficiency virus 1, MT4, with DDI 4.38 µM, read-out: IC50 of Preparation example 117) of 0.00078 µg/mL, an IC50 ([1]; Human immunodeficiency virus 1, MT4, with ZDV 0.78 ng/ml, read-out: IC50 of Preparation example 117) of 0.028 µg/mL and an IC50 ([1]; Human immunodeficiency virus 1, MT4, with ZDV 1.20 ng/ml, read-out: IC50 of Preparation example 117) of 0.025 µg/mL. The IC50 ([1]; Human immunodeficiency virus 1, MT4, with ZDV 3.13 ng/ml, read-out: IC50 of Preparation example 117) was 0.0162 µg/mL, the IC50 ([1]; Human immunodeficiency virus 1, MT4, with ZDV 5.60 ng/ml, read-out: IC50 of Preparation example 117) was 0.0125 µg/mL and the IC50 ([1]; Human immunodeficiency virus 1, MT4, with ZDV 12.5 ng/ml, read-out: IC50 of Preparation example 117) was 0.0053 µg/mL. It also gave an IC50 ([1]; Human immunodeficiency virus 1, MT4, with ZDV 14.5 ng/ml, read-out: IC50 of Preparation example 117) of 0.00156 µg/mL.
